Results as given in ChEMBL document CHEMBL5236618, “Discovery and Optimization of Potent, Selective, and Brain-Penetrant 1-Heteroaryl-1H-Indazole LRRK2 Kinase Inhibitors for the Treatment of Parkinson's Disease” (J Med Chem, 2022).

Tests used:
[1] = Clearance in rat at 0.1 mg/kg, iv administered as cassette dose measured upto 24 hrs by LC-MS/MS method; assay type: ADME, organism-based; details: in vivo
[2] = Mean residence time in rat at 0.1 mg/kg, iv administered as cassette dose measured upto 24 hrs by LC-MS/MS method; assay type: ADME, organism-based; details: in vivo
[3] = Unbound clearance in rat at 0.1 mg/kg, iv administered as cassette dose measured upto 24 hrs by LC-MS/MS method; assay type: ADME, organism-based; details: in vivo
[4] = Unbound clearance in rat at 10 mg/kg, po or 2 mg/kg, iv measured upto 24 hrs by LC-MS/MS method; assay type: ADME, organism-based; details: in vivo
[5] = Mean residence time in rat at 10 mg/kg, po or 2 mg/kg, iv measured upto 24 hrs by LC-MS/MS method; assay type: ADME, organism-based; details: in vivo
[6] = Oral bioavailability in rat at 10 mg/kg measured upto 24 hrs by LC-MS/MS method; assay type: ADME, organism-based; details: in vivo
[7] = Mean residence time in dog at 3 mg/kg, po or 0.5 mg/kg, iv measured upto 24 hrs by LC-MS/MS method; assay type: ADME, organism-based, Canis lupus familiaris; details: in vivo
[8] = Unbound clearance in rhesus monkey at 2 mg/kg, iv measured upto 24 hrs by LC-MS/MS method; assay type: ADME, organism-based, Macaca mulatta; details: in vivo
[9] = Unbound clearance in dog at 3 mg/kg, po or 0.5 mg/kg, iv measured upto 24 hrs by LC-MS/MS method; assay type: ADME, organism-based, Canis lupus familiaris; details: in vivo
[10] = Oral bioavailability in dog at 3 mg/kg measured upto 24 hrs by LC-MS/MS method; assay type: ADME, organism-based, Canis lupus familiaris; details: in vivo
[11] = Clearance in rhesus monkey at 2 mg/kg, iv measured upto 24 hrs by LC-MS/MS method; assay type: ADME, organism-based, Macaca mulatta; details: in vivo
[12] = Unbound brain-to-plasma concentration ratio in rat; assay type: ADME, cell-free; details: read-out: K(p,uu,brain)
[13] = Mean residence time in rhesus monkey at 2 mg/kg, iv measured upto 24 hrs by LC-MS/MS method; assay type: ADME, organism-based, Macaca mulatta; details: in vivo
[14] = Unbound brain-to-plasma concentration ratio in non human primates; assay type: ADME, cell-free; details: read-out: K(p,uu,brain)

SMILES	clearance [1]	MRT [2]	CL free [3]	CL free [4]	MRT [5]	bioavailability [6]	MRT [7]	CL free [8]	CL free [9]	bioavailability [10]	clearance [11]	Kp uu [12]	MRT [13]	Kp uu [14]
C[C@@H]1CN(c2cc(-c3ncc4ccc(-c5cnn(C)c5)cn34)ccn2)C[C@H](C)O1	98 mL/min/kg	0.5 h	5850 mL/min/kg											
C[C@@H]1CN(c2cc(-c3n[nH]c4ccc(OC5(C)CC5)cc34)ncn2)C[C@H](C)O1 [MLi-2]				12700 mL/min/kg	2 h	38%	7 h	3400 mL/min/kg	3200 mL/min/kg	100%	16 mL/min/kg	0.5	1.5 h	0.4
